Data published in patent publication US5089479A, “Adhesion of Mycoplasma pneumoniae and Mycoplasma hominus to sulfatide” (priority 1988, dated 1992).
“Also recorded” adds a separate entry of the source.

Experiments:
[1] = system: M. pneumoniae binding to laminin; experiment: Inhibition of M. pneumoniae binding to laminin adsorbed on plastic; set-up: species or system Mycoplasma pneumoniae strain M129; conditions: for IC50: oligosaccharide concentrations as sialic acid, read-out: I.D.50, substrate laminin
Experimental: (§1) Glycoproteins dissolved in 0.01 M sodium phosphate buffer, pH 7.4, containing 150 mM NaCl, 1 mM CaCl2, and 0.01% NaN3 were adsorbed onto plastic polyvinylchloride […] microtiter plates by incubation for 16 hours at 4° C. The unbound proteins were removed, and the wells were filled with tris-BSA and incubated for 30 minutes at room temperature. The wells were rinsed with RPMI1640 containing 25 mM HEPES, pH 7.3, and 1% bovine serum albumin. M. pneumoniae strain M129 labelled with [^3 H]-palmitate were dispersed in RPMI-BSA by passing four times through a 26 gauge needle, and 50 μl of the suspension was applied to the wells. After incubation for 60 minutes at 37° C., the wells were washed five times with saline and the labelled M. pneumoniae bound to the proteins were quantified by scintillation counting in Aquasol.
For inhibition studies, sugars in 25 μl of RPMI-BSA were added to wells coated with 10 μg/ml laminin followed by 25 μl of [^3 H]-M. pneumoniae. Binding was determined to both laminin-coated and uncoated wells in triplicate at each inhibitor concentration and in the absence of inhibitor. In some experiments, the adsorbed proteins were pretreated with neuraminidase. After adsorption of the proteins and incubation in tris-BSA, the wells were rinsed three times with 50 mM sodium acetate, pH 5.5, containing 150 mM NaCl, 5 mM CaCl2, 1 mg/ml bovine serum albumin, and 1 mM phenylmethanesulfonyl fluoride. The wells were incubated with 0.05 units/ml neuraminidase in the same buffer or with buffer without enzyme overnight at 20° C. The wells were rinsed three times with tris-BSA, and M. pneumoniae binding was determined as described above.

[2] = system: M. pneumoniae adhesion to coverslips; experiment: Inhibition of nonspecific adhesion of M. pneumoniae to coverslips without cells; assay type: binding, Mycoplasma pneumoniae strain M129
Experimental: (§2) Adhesion of [^3 H]-M. pneumoniae to cells on glass covered slips was measured by a modification of a method previously described by Chandler et al., Infect. Immun., op. cit. WiDr human colon adenocarcinoma, ATCC CCL 218 was grown in Eagle's minimal essential medium with 10% fetal calf serum in a 5% CO2 atmosphere at 37° C. The cells were removed with trypsin and plated on 12 mm round glass coverslips in 24-well tissue culture plates and grown for three days. Control coverslips were preincubated in medium without cells. The coverslips were washed in serum-free medium, then incubated in RPMI-BSA for fifteen minutes. The medium was removed and labelled M. pneumoniae suspended in 0.5 ml of RPMI-BSA were added to each well. The plates were incubated on a rocking table for 60 minutes at 37° C. The coverslips were washed by dipping in saline six times, and the bound radioactive bacteria were determined by scintillation counting. For inhibition studies, the inhibitors were added to M. pneumoniae prior to adding the bacteria to the coverslips.
(§3) Adhesion of labelled M. pneumoniae to WiDr cells on glass cover slips was determined as described previously. For inhibition studies, dextran sulfate and 3'-sialyllactose were dissolved in RPMI-BSA and the pH was adjusted to 7.4 with NaOH. The inhibitors were added to wells containing washed cover slips with attached WiDr cells or blank cover slips preincubated in medium or tris-BSA. Labelled M. pneumoniae were added immediately and incubated with slow rocking for sixty minutes at 37° C. After the coverslips were washed by dipping six times in saline, bound M. pneumoniae were determined by scintillation counting in Aquasol. […] After washing to remove the unbound organisms, the bound mycoplasma were determined by scintillation counting. Binding to uncoated wells was 3% of the applied radioactivity.

[3] = system: M. pneumoniae adhesion to WiDr cells; experiment: Inhibition of M. pneumoniae adhesion to WiDr human colon adenocarcinoma cell monolayers; assay type: cell-based
Experimental: as §2
Because virulent strains of M. pneumoniae adhere to mammalian cells, monolayers of WiDr cells were used to determine if dextran sulfate inhibits adhesion of the organism. [^3 H] -labelled M. pneumoniae was incubated with WiDr cell monolayers attached to coverslips in triplicate with an without dextran sulfate, as shown in Table II. […] In each experiment, 10 μg/ml dextran sulfate inhibited more than 1 μg/ml, but 100 μg/ml dextran sulfate caused no further inhibition. Thus, maximal inhibition was obtained with approximately 10 μg/ml of dextran sulfate. Similar results were obtained with MRC5 lung fibroblasts where in three experiments a mean of 47% of M. pneumoniae adhesion was inhibited by dextran sulfate.
as §3
Adhesion of [^3 H]-M. pneumoniae to WiDr cells growing on 13 mm glass cover slips was determined as described above. Inhibition by dextran sulfate or 3'-sialyllactose at the indicated concentrations was calculated relative to control binding determined in RPMI/BSA without inhibitors. The results are presented as percent inhibition (mean±S.D. n=4 with n=8 for determination of control binding without inhibitor).

[4] = target: M. pneumoniae binding to sulfatide; experiment: Inhibition of M. pneumoniae binding to sulfatide adsorbed on plastic; set-up: species or system Mycoplasma pneumoniae strain M129
Experimental: (§4) Virulent M. pneumoniae strain M129, passage 5-15, were grown and metabolically labelled with [^3 H]palmitic acid, 12-17 Ci/mole, as described by Chandler et al. in Infect. Immun. 37: 942, 1982. The organisms were passed four times through a 26 gauge needle and suspended to approximately 10^7 cpm/ml of degassed RPMI 1640 medium containing 1% bovine serum albumin and 25 mM HEPES, pH 7.3.
(§5) The binding of M. pneumoniae to purified glycolipids immobilized in microtiter plates was measured as described by Krivan et al. in Proc. Natl. Acad. Sci., op. cit. Purified glycolipids were serially diluted in 25 μl of methanol containing 0.1 μg each of the auxiliary lipids cholesterol and phosphatidylcholine. After the solutions were dried by evaporation, the wells were filled with TBS-BSA, emptied after one hour, rinsed with RPMI-BSA, and incubated with 25 μl of [^3 H]-M. pneumoniae, approximately 10^7 cpm/ml RPMI-BSA. After incubation for two hours at 37° C., unless otherwise stated, the wells were washed five times with saline and bound M. pneumoniae was quantified by scintillation counting in Aquasol. For inhibition studies, various polysaccharides were serially diluted in […] of [^3 H]-M. pneumoniae.
To obtain the results shown in FIG. 4, polysaccharides were serially diluted in 25 μl of RPMI-BSA in microtiter wells previously coated with 1 μg of purified sulfatide. Binding was determined after incubation of two hours at 37° C. with 25 μl of [^3 H]-M. pneumoniae with the indicated concentration of dextran ( .circle. ) or dextran sulfate.

M. pneumoniae [5] = experiment: Mycoplasma overlay assay: binding of [3H]-M. pneumoniae to glycolipids on thin layer chromatograms; set-up: species or system Mycoplasma pneumoniae strain M129; conditions: for binding of M. pneumoniae to glycolipid (in words): thin layer chromatogram overlay
Experimental: as §4
M. pneumoniae were bound to glycolipids separated on thin-layer chromatograms as described in detail for other bacteria by Krivan et al., Proc. Natl. Acad. Sci. 85: 6157-6161, 1988, and Krivan et al., Arch. Biochem. Biophys. 260:493-496, 1988. Briefly, glycolipids were separated by thin-layer chromatography on aluminum-backed silica gel high-performance plates developed with chlooform:methanol:0.25% CaCl2 in water (60:35:8). After chromatography, the plates were coated with 0.1% polyisobutylmethacrylate, soaked in 0.05 M Tris-HCl, pH 7.6, containing […] sodium chloride, 5 mM CaCl2, 0.2 mM phenylmethane-sulfonyl fluoride, and 1% bovine serum albumin (TBS-BSA) and incubated for three hours at 25° C. with 60 μl/cm^2 of [^3 H]-labelled M. pneumoniae, approximately 10^7 cpm/ml of RPMI-BSA. The plates were gently washed five times in 0.01 M sodium phosphate, pH 7.2, containing 0.15 M sodium chloride (PBS) to remove unbound organisms, dried, and exposed for 24 hours to Ultrofilm ^3 H (2208-190) high speed film.
To obtain the results shown in FIG. 1, glycolipids were chromatographed on aluminum-backed silica gel HPTLC plates developed in chloroform/methanol/0.25% CaCl2 in water, 60:35:8. The plates were coated with plastic, soaked in Tris-BSA, and incubated for three hours at 25° C. with [^3 H]-palmitate-labelled M. pneumoniae suspended in RPMI 1640 containing 1% BSA and 25 mM HEPES, pH 7.3, as described above (Panel A), or sprayed with orcinol reagent to identify glycolipids (Panel B). Lane a, acidic glycolipid standards sulfatide (0.5 μg), GM3 (2 μg), GM2 (2 μg), GD1a (2 μg), GD1b (2 μg), GT1b (2 μg); lane b, neutral standards galactosyl ceramide (4 μg), lactosylceramide (4 μg), globotriaosylceramide (2 μg), c2(0.5 μg). and c3 (o.1 μg); lane d, seminolipid (2 μg); lane e, cholesterol 3 -sulfate (2 μg); lane f, human trachea acidic glycolipids from 100 mg wet weight […]; lane h, α2-3sialylparagloboside (2 μg); lane 1, I-active monosialylganglioside from bovine erythrocytes (2 μg).

M. pneumoniae [6] = experiment: Solid-phase binding of [3H]-M. pneumoniae to purified glycolipids immobilized in microtiter plates; set-up: species or system Mycoplasma pneumoniae strain M129
Experimental: as §4, §5
To obtain the results shown in FIG. 2, lipids in […] each of the auxiliary lipids cholesterol and phosphatidylcholine were evaporated in flat bottom wells of polyvinylchloride microtiter plates. The wells were blocked with 1% albumin for one hour, washed twice with RPMI-BSA, and incubated at 25° C. with 25 μl of [^3 H]-M. pneumoniae, approximately […]. After two hours, the wells were washed five times with saline, cut from the plate, and bound radioactivity was quantified in a scintillation counter. In control experiments, organisms were incubated with auxiliary lipids only to correct for nonspecific binding, typically <1% of the total radioactivity added. M. pneumoniae binding was determined in RPMI-BSA for sulfatide ( .circle. ), lactosylceramide, paragloboside, and cholesterol sulfate, ceramide trihexoside, globoside, GM1, GM2, or GM3 ( .largecircle.).
Binding of [^3 H]-M. pneumoniae was determined in RPMI-BSA for two hours at 4° C., 25° C. ( .circle. ), 37° C., and at 37° C. in BSA without RPMI (Δ).

M. pneumoniae [7] = experiment: M. pneumoniae adhesion to immobilized glycoproteins adsorbed on plastic; assay type: binding, Mycoplasma pneumoniae strain M129; conditions: for M. pneumoniae adhesion to immobilized glycoprotein (in words): adsorbed on plastic
Experimental: as §1, with “Aquasol. […]” for “Aquasol.”

[8] = system: erythrocyte adhesion to M. pneumoniae; conditions: relative to fetuin; Loomes et al.; cited from earlier work

Which “Binding % of control” value ([1]; 5 mM inhibitor, laminin substrate, 60 min) does the source give for `CC(=O)NC1C(O)CC(OCC2OC(OC3C(CO)OC(O)C(O)C3O)C(O)C(O)C2O)(C(=O)O)OC1C(O)C(O)CO` (centres unmarked) [6'-sialyllactose] here?
The value was 54 % of control.

And the “relative inhibitory activity, binding to laminin (in words)” value ([1]; compared with 3'-sialyllactose or other fetuin oligosaccharide fractions)?
Its value is “at least ten-fold less active”.

And the IC50 [1]?
The IC50 was greater than 5000 µM.

Which “inhibition of non-specific adhesion to coverslips (in words)” value ([2]; coverslips preincubated in medium containing fetal calf serum) does the source give for `CC(=O)NC1C(O)CC(OC2C(O)C(CO)OC(OC3C(CO)OC(O)C(O)C3O)C2O)(C(=O)O)OC1C(O)C(O)CO` (centres unmarked) [3'-sialyllactose] here?
Its value is “specifically inhibited”.

And the “inhibition of nonspecific binding to coverslips (in words)” value ([2]; coverslips preincubated in tris-BSA)?
Its value is “does not inhibit nonspecific binding”.

What about the “inhibition of adhesion to WiDr cells (in words)” value [3] of the same molecule?
The value was “partially inhibit”.

What about the “inhibition of adhesion to WiDr cells (in words)” value ([3]; listed as 3'-Sialyllactose) of the same molecule?
The value was “The inhibition is dose dependent”.

What about the control adhesion remaining ([3]; WiDr, more than ten-fold higher than ID50 for binding to laminin, 60 min) of the same molecule?
The control adhesion remaining was 40%.

And the IC50 ([4]; oligosaccharide concentrations as sialic acid, read-out: I.D.50, substrate sulfatide)?
Its IC50 is greater than 5 mM.

And the “inhibition of binding to sulfatide (in words)” value ([4]; sulfatide adsorbed on plastic)?
Its value is “Neither laminin nor 3'-sialyllactose inhibits M. pneumoniae attachment to sulfatide; also recorded: does not inhibit binding to sulfatide”.

What about the “inhibition of binding to laminin (in words)” value ([1]; laminin adsorbed on plastic) of the same molecule?
Its value is “inhibited by 3'-sialyllactose at comparable concentrations; also recorded: inhibit attachment of M. pneumoniae to laminin”.

And the IC50 [1]?
Its IC50 is 300 µM.

Which results are given for “galactosyl ceramide-I^3 -sulfate [Sulfatide]”?
Binding (ability to bind M. pneumoniae) (M. pneumoniae [5]; Table I, class by amount of lipid bound): +++ (positive binding to less than 0.5 μg); binding of M. pneumoniae to glycolipid (in words) (M. pneumoniae [5]; listed as galactosyl ceramide I^3 -sulfate): does not discriminate between galactosyl ceramide I^3 -sulfate and its unnatural 6-sulfate isomer; binding of M. pneumoniae to glycolipid (in words) (M. pneumoniae [5]; listed as sulfatide): bound strongly; also recorded: bound avidly; amount of glycolipid detected by M. pneumoniae overlay (M. pneumoniae [5]; thin layer chromatogram, lane C3): 100 ng; binding activity at 4° C. (M. pneumoniae [6]; 4° C., RPMI-BSA): almost completely abolished; also recorded: minimal; binding activity at 25° C. (relative to 37° C.) (M. pneumoniae [6]; 25° C., RPMI-BSA): about five times lower; amount of sulfatide required for half-maximum binding (M. pneumoniae [6]; 37° C., RPMI-BSA): about 0.25 μg; binding in nutrient-deficient medium (M. pneumoniae [6]; 37° C., Tris-BSA without RPMI): almost completely abolished; also recorded: bound poorly; binding in RPMI medium at 37° C. (M. pneumoniae [6]; RPMI medium, 37° C. / physiological temperatures): maximal; binding of M. pneumoniae to immobilized lipid (in words) (M. pneumoniae [6]; microtiter plate, up to 10 μg per well): good dose response; also recorded: bind to sulfatide adsorbed on plastic; also recorded: sensitive and dose-dependent

For “Human α1 -acid glycoprotein: glycoprotein”, which “M. pneumoniae adhesion to immobilized glycoprotein (in words)” value (M. pneumoniae [7]) is on record?
The value was “neither protein binds M. pneumoniae well”.

And the “M. pneumoniae adhesion to immobilized glycoprotein (in words)” value (M. pneumoniae [7]; listed as alpha-1-acid glycoprotein)?
The value was “weakly active”.

And the Relative binding activity (M. pneumoniae [7]; relative to fetuin = 1.0, from amount for half maximal binding, mean of 2 or 3 experiments)?
The Relative binding activity was 0.03.

And the “inhibition of erythrocyte adhesion to M. pneumoniae (in words)” value [8]?
Its value is “inhibit erythrocyte adhesion to M. pneumoniae better than fetuin”.
